System: 873145-292-R-J1-PDC complex spheroid viability
Assay: Anticancer human tumor 873145-292-R-J1-PDC patient-derived renal clear cell carcinoma cell line growth inhibition [POLQ]
Conditions: for IC50: curve of first compound; for viability, T/C: stronger effect = lower value
Outline: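 Three-cell-type spheroids modelling solid tumor plus stroma served as the readout system; POL inhibitors were tested individually and in combination, concentration ranges set by clinical Cmax where known.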

[1] = second compound 0.0316 µM, first compound 0.0316 µM
[2] = second compound 0.0316 µM, first compound 0.1 µM
[3] = second compound 0.0316 µM, first compound 0.316 µM
[4] = second compound 0.0316 µM, first compound 1 µM
[5] = second compound 0.0316 µM, first compound 3.16 µM
[6] = second compound 0.0316 µM, first compound 10 µM
[7] = second compound 0.1 µM, first compound 0.0316 µM
[8] = second compound 0.1 µM, first compound 0.1 µM
[9] = second compound 0.1 µM, first compound 0.316 µM
[10] = second compound 0.1 µM, first compound 1 µM
[11] = second compound 0.1 µM, first compound 3.16 µM
[12] = second compound 0.1 µM, first compound 10 µM
[13] = second compound 0.316 µM, first compound 0.0316 µM
[14] = second compound 0.316 µM, first compound 0.1 µM
[15] = second compound 0.316 µM, first compound 0.316 µM
[16] = second compound 0.316 µM, first compound 1 µM
[17] = second compound 0.316 µM, first compound 3.16 µM
[18] = second compound 0.316 µM, first compound 10 µM
[19] = second compound 1 µM, first compound 0.0316 µM
[20] = second compound 1 µM, first compound 0.1 µM
[21] = second compound 1 µM, first compound 0.316 µM
[22] = second compound 1 µM, first compound 1 µM
[23] = second compound 1 µM, first compound 3.16 µM
[24] = second compound 1 µM, first compound 10 µM
[25] = second compound 3.16 µM, first compound 0.0316 µM
[26] = second compound 3.16 µM, first compound 0.1 µM
[27] = second compound 3.16 µM, first compound 0.316 µM
[28] = second compound 3.16 µM, first compound 1 µM
[29] = second compound 3.16 µM, first compound 3.16 µM
[30] = second compound 3.16 µM, first compound 10 µM
[31] = second compound 10 µM, first compound 0.0316 µM
[32] = second compound 10 µM, first compound 0.1 µM
[33] = second compound 10 µM, first compound 0.316 µM
[34] = second compound 10 µM, first compound 1 µM
[35] = second compound 10 µM, first compound 3.16 µM
[36] = second compound 10 µM, first compound 10 µM
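Note: spheroids exposed to compounds for 7 days before viability readout.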
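Throughout, for viability, T/C: luminescence signal used as surrogate for viable cell content; 100% = DMSO vehicle control viability.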

C#Cc1c(F)ccc2cc(O)cc(-c3ncc4c(N5CC6CCC(C5)N6)nc(OCC56CCCN5CC(F)C6)nc4c3F)c12 (stereo not drawn) + Nc1ccc(C#CCN(C(=O)Cc2ncc(C(F)(F)F)cc2C(F)(F)F)c2ccc(F)cc2)nn1
IC50 (second compound 0.0316 µM): > 10 µM | IC50 (second compound 0.1 µM): > 10 µM | IC50 (second compound 0.316 µM): > 10 µM | IC50 (second compound 1 µM): > 10 µM | IC50 (second compound 3.16 µM): > 10 µM | IC50 (second compound 10 µM): > 10 µM | viability, T/C [1]: 102% | viability, T/C [2]: 103% | viability, T/C [3]: 106% | viability, T/C [4]: 99.4% | viability, T/C [5]: 105% | viability, T/C [6]: 97.1% | viability, T/C [7]: 115% | viability, T/C [8]: 110% | viability, T/C [9]: 96.6% | viability, T/C [10]: 108% | viability, T/C [11]: 101% | viability, T/C [12]: 91.9% | viability, T/C [13]: 101% | viability, T/C [14]: 106% | viability, T/C [15]: 84% | viability, T/C [16]: 104% | viability, T/C [17]: 98.8% | viability, T/C [18]: 86.7% | viability, T/C [19]: 108% | viability, T/C [20]: 93.8% | viability, T/C [21]: 111% | viability, T/C [22]: 97.9% | viability, T/C [23]: 104% | viability, T/C [24]: 95.4% | viability, T/C [25]: 106% | viability, T/C [26]: 100% | viability, T/C [27]: 107% | viability, T/C [28]: 106% | viability, T/C [29]: 90.7% | viability, T/C [30]: 101% | viability, T/C [31]: 108% | viability, T/C [32]: 98.7% | viability, T/C [33]: 104% | viability, T/C [34]: 98.2% | viability, T/C [35]: 109% | viability, T/C [36]: 105%

CC1COCCN1c1cc(C2(O)CC3CCC(C2)O3)c2cnn(-c3ccn[nH]3)c2n1 (stereo not drawn) + Nc1ccc(C#CCN(C(=O)Cc2ncc(C(F)(F)F)cc2C(F)(F)F)c2ccc(F)cc2)nn1
IC50 (second compound 0.0316 µM): 2.4 µM | IC50 (second compound 0.1 µM): 1.09 µM | IC50 (second compound 0.316 µM): > 10 µM | IC50 (second compound 1 µM): 1.68 µM | IC50 (second compound 3.16 µM): > 10 µM | IC50 (second compound 10 µM): > 10 µM | viability, T/C [1]: 101% | viability, T/C [2]: 84% | viability, T/C [3]: 61.3% | viability, T/C [4]: 52.8% | viability, T/C [5]: 50.3% | viability, T/C [6]: 47.6% | viability, T/C [7]: 111% | viability, T/C [8]: 81.9% | viability, T/C [9]: 61.5% | viability, T/C [10]: 48.1% | viability, T/C [11]: 49.8% | viability, T/C [12]: 40.9% | viability, T/C [13]: 94.3% | viability, T/C [14]: 79.4% | viability, T/C [15]: 54.9% | viability, T/C [16]: 50.4% | viability, T/C [17]: 59.4% | viability, T/C [18]: 45.6% | viability, T/C [19]: 89.2% | viability, T/C [20]: 72.2% | viability, T/C [21]: 59.9% | viability, T/C [22]: 50.2% | viability, T/C [23]: 51.2% | viability, T/C [24]: 42.4% | viability, T/C [25]: 89.2% | viability, T/C [26]: 81% | viability, T/C [27]: 67.5% | viability, T/C [28]: 53.2% | viability, T/C [29]: 56.8% | viability, T/C [30]: 46.9% | viability, T/C [31]: 99.3% | viability, T/C [32]: 94.5% | viability, T/C [33]: 66% | viability, T/C [34]: 57.1% | viability, T/C [35]: 55.3% | viability, T/C [36]: 48.2%

CCc1cc2c(N3CCc4c(cc(Cn5ccnc5)cc4-c4cn(C)nc4C(F)(F)F)C3=O)cc(C)nc2c(OC)n1 + Nc1ccc(C#CCN(C(=O)Cc2ncc(C(F)(F)F)cc2C(F)(F)F)c2ccc(F)cc2)nn1
IC50 (second compound 0.0316 µM): > 10 µM | IC50 (second compound 0.1 µM): > 10 µM | IC50 (second compound 0.316 µM): > 10 µM | IC50 (second compound 1 µM): > 10 µM | IC50 (second compound 3.16 µM): > 10 µM | IC50 (second compound 10 µM): > 10 µM | viability, T/C [1]: 92.6% | viability, T/C [2]: 110% | viability, T/C [3]: 101% | viability, T/C [4]: 91.2% | viability, T/C [5]: 80.6% | viability, T/C [6]: 75.2% | viability, T/C [7]: 103% | viability, T/C [8]: 100% | viability, T/C [9]: 77.9% | viability, T/C [10]: 93% | viability, T/C [11]: 79.2% | viability, T/C [12]: 68.6% | viability, T/C [13]: 94.4% | viability, T/C [14]: 109% | viability, T/C [15]: 74% | viability, T/C [16]: 90.7% | viability, T/C [17]: 95.8% | viability, T/C [18]: 73.6% | viability, T/C [19]: 101% | viability, T/C [20]: 92.5% | viability, T/C [21]: 91.9% | viability, T/C [22]: 95.8% | viability, T/C [23]: 77.6% | viability, T/C [24]: 76.8% | viability, T/C [25]: 97.9% | viability, T/C [26]: 104% | viability, T/C [27]: 97.6% | viability, T/C [28]: 93% | viability, T/C [29]: 85.7% | viability, T/C [30]: 78.9% | viability, T/C [31]: 105% | viability, T/C [32]: 101% | viability, T/C [33]: 98% | viability, T/C [34]: 97.3% | viability, T/C [35]: 89% | viability, T/C [36]: 69.2%

COc1cc2cc(C(=O)CCC(=O)O)sc2cc1OC + Nc1ccc(C#CCN(C(=O)Cc2ncc(C(F)(F)F)cc2C(F)(F)F)c2ccc(F)cc2)nn1
IC50 (second compound 0.0316 µM): > 10 µM | IC50 (second compound 0.1 µM): > 10 µM | IC50 (second compound 0.316 µM): > 10 µM | IC50 (second compound 1 µM): > 10 µM | IC50 (second compound 3.16 µM): > 10 µM | IC50 (second compound 10 µM): > 10 µM | viability, T/C [1]: 94.6% | viability, T/C [2]: 116% | viability, T/C [3]: 95.8% | viability, T/C [4]: 97.8% | viability, T/C [5]: 104% | viability, T/C [6]: 102% | viability, T/C [7]: 106% | viability, T/C [8]: 115% | viability, T/C [9]: 92.3% | viability, T/C [10]: 107% | viability, T/C [11]: 121% | viability, T/C [12]: 91.5% | viability, T/C [13]: 104% | viability, T/C [14]: 116% | viability, T/C [15]: 96.8% | viability, T/C [16]: 99.3% | viability, T/C [17]: 97.2% | viability, T/C [18]: 89.8% | viability, T/C [19]: 104% | viability, T/C [20]: 105% | viability, T/C [21]: 112% | viability, T/C [22]: 105% | viability, T/C [23]: 104% | viability, T/C [24]: 92.5% | viability, T/C [25]: 112% | viability, T/C [26]: 104% | viability, T/C [27]: 91.8% | viability, T/C [28]: 106% | viability, T/C [29]: 103% | viability, T/C [30]: 103% | viability, T/C [31]: 113% | viability, T/C [32]: 105% | viability, T/C [33]: 119% | viability, T/C [34]: 110% | viability, T/C [35]: 103% | viability, T/C [36]: 105%

Source: PubChem BioAssay AID1963834 (Molecular Pharmacology Branch, DTP, NCI, 2024)
